± gives the expanded uncertainty stated by the source.

`[K+].[O-][Cl+3]([O-])([O-])[O-]` [potassium perchlorate]: the Triple point temperature (Crystal 2, DSC) is on record as 579.15 ± 2 K.

With `[Al]` [aluminum], the Normal melting temperature (Crystal 1, DTA) worked out at 662.00 ± 2 °C.

Values taken from the NIST ThermoML archive (doi:10.1016/j.tca.2017.11.006).
